Entries after “also recorded” stand apart in the source; their conditions may differ.
Legend:
K562 cells [1] = experiment: Immunoblotting of CML signaling proteins; assay type: cell-based, human; details: 5 µM
Protocol: K562 cells were plated at a concentration of 1–2 × 10^5 cells/mL in a 6-well plate. After 24 h of pre-incubation, BK124.1 or DMSO was added and cells were incubated for a specified time, after which cells were lysed with RIPA buffer (Sigma-Aldrich, St. Louis, MO, USA) and supplemented with c0mplete Protease Inhibitor (Roche, Basel, Switzerland) and PhosSTOP (Roche, Basel, Switzerland). Protein concentration was measured using Pierce BCA Protein Assay Kit (Thermo Fisher Scientific, Waltham, MA, USA) and adjusted to contain equal amount of protein (20 µg) in equal volume. Protein lysates were separated by SDS-PAGE electrophoresis (TGX StainFree, Bio-Rad, Hercules, CA, USA) and transferred onto the PVDF membranes (AppliChem GmbH ITW Reagents, Darmstadt, Germany). Membranes were blocked with 5% non-fat powdered milk, then incubated with primary antibodies overnight at 4 °C followed by HRP-conjugated antibodies (Supplementary Methods). Blots were developed using Clarity Western ECL Substrate and analyzed with ChemiDoc XRS+ (Bio-Rad, Hercules, CA, USA). Protein levels normalized to controls were determined using ImageJ software.
K562 cells were plated at a concentration of 1.5 × 10^5 cells/mL in a 6-well plate. After 24 h pre-incubation, BK124.1 in DMSO was added and incubated for the specified time. Next, cytosolic and nuclear cell fractions were separated as described. […]

K562 cells [2] = experiment: K562 in BK124.1 long term experiment (6 months), MDR1 induction; assay type: cell-based, human; details: 1 µM or 2 µM for at least 6 months
[3] = Pharmacokinetics in Balb/c nude mice; assay type: in vivo; details: for MRT last / half-life / AUC(0-inf) / C0: Balb/c nude; for AUC(0-inf): extrapolated to infinity; for C0: extrapolated to t = 0
Protocol: Eight-week-old female Balb/c nude mice were randomly divided into test groups and injected with BK124.1 either intraperitoneally, at 20 mg/kg or 40 mg/kg concentrations, or intravenously at 20 mg/kg concentration. The compound blood concentration was measured 15 min, 6, 12, and 24 h post-injection. For each time point, 4 mice were sacrificed. BK124.1 concentration in the bloodstream was analyzed using mass spectrometry. Toxicology was assessed by examining physiological and morphological changes at the injection site, the appearance of internal organs (liver, heart, kidneys, and spleen), blood tests, body mass, and animal behavior.

K562 cells [4] = experiment: K562 cell cycle analysis; assay type: cell-based, human; details: 5 µM, after 24 h; lesser extent after 48 h
Protocol: BK124.1 or DMSO was added to cells and after 24 or 48 h incubation. Cells were fixed and stained with 50 µg/mL propidium iodide (Sigma-Aldrich, St. Louis, MO, USA) with 50 µg/mL DNAse-free RNase. The cell cycle was analyzed on a FACSCalibur cytometer (Becton Dickinson, Franklin Lakes, NJ, USA) using ModFit LT 3.2 software (Verity Software House, Topsham, ME, USA). […]
incubated overnight at 37 °C and analyzed using an iMark Microp late absorbance reader (Bio-Rad, Hercules, CA, USA). Results were calculated relative to control cells treated with DMSO only.
[…] CD34+ cells were plated at a concentration of 2.5 × 10^5 cells/mL in a 24-well plate. […] A f t e r a further 24 hours, cells were harvested and stained according to the manufacturer's protocol using the Annexin V-FITC kit for the detection of apoptosis (BD, Franklin Lakes, NJ, USA). Stained cells were immediately analyzed on a BD FACSCalibur using CellQuest softwa re (BD, Franklin Lakes, NJ, USA).
Cells were seeded at a concentration of 1-2 × 10^5 cells/mL in a 6-well plate. After 24 hours of pre-incubation, BK124.1 in DMSO was added to the cells (vDMSO/vmedium), and incubated for 24 or 48 hours.
After incubation, cells were washed twice with ice-cold PBS (Mg2+ and Ca2+-free), resuspended in ice-cold 70% ethanol, and placed at -20 °C for 24 hours. […]
Flow cytometry analysis of CD243 (P-glycoprotein) […]

[5] = IP 20 mg/kg, whole blood, female mouse
[6] = IP 40 mg/kg, whole blood, female mouse
[7] = IV 20 mg/kg, whole blood, female mouse

## CCC12C(=O)C(CC)(C(c3ccccc3)=C1c1ccccc1)C1C(=O)N(CC(O)CNC(C)C)C(=O)C12 (stereo not shown) [BK124.1, 4-[2-hydroxy-3-(propan-2-ylamino)propyl]-1,7-diethyl-8,9-diphenyl-4-azatricyclo [5.2.1.02,6]dec-8-ene-3,5,10-trione]
K562 cells [1]; first changes after 4 and 8 h
  Level of BCR-ABL1, STAT5, AKT, mTOR and NF-κB proteins: decrease in the level
K562 cells [1]; from 4 h, maximum after 8 h, mainly nuclear fraction
  Level of FOXO3A and p21waf1/cip1 proteins: increase in the level
K562 cells [2]
  Induction of MDR1 in standard K562 cells: not able to induce MDR1; also recorded: unable to induce MDR1 expression
[3]; [5]
  MRT last: 5.09 h
  half-life: 3.53 h
  AUC(0-inf): 9580 ng·h/mL
  C0: 1740 ng/mL
  AUClast, dose normalized: 3.24 kg·ng·h/mL/mg
  AUC∞, dose normalized: 479 kg·ng·h/mL/mg
[3]; [6]
  MRT last: 7.48 h
  half-life: 5.18 h
  AUC(0-inf): 23500 ng·h/mL
  C0: 2760 ng/mL
  AUClast, dose normalized: 16.18 kg·ng·h/mL/mg
  AUC∞, dose normalized: 587 kg·ng·h/mL/mg
[3]; [7]
  MRT last: 4.78 h
  half-life: 3.31 h
  AUC(0-inf): 6620 ng·h/mL
  C0: 1020 ng/mL
  AUClast, dose normalized: 2.50 kg·ng·h/mL/mg
  AUC∞, dose normalized: 331 kg·ng·h/mL/mg
[3]; female, mouse, IP 20 mg/kg, blood
  half-life: 3.53 h
[3]; female, mouse, IP 40 mg/kg, blood
  half-life: 5.18 h
[3]; female, mouse, IV 20 mg/kg, blood
  half-life: 3.31 h
K562 cells [4]
  Cell cycle effect: profound G2/M arrest
